The chains are these.
B1: ALuc18: artificial luciferase, SEQ ID NO: 14 (protein)
chain: MMGIKVLFALICFALVQANPTENKDDIDIVGVEGKFGTTDLETDLFTIVEDMNVISRDTDVDANRADRGRRGHGGLPGKKMPLEVLLELEANAQRAGCTRGCLICLSKIKCTAKMKKWLPGRCESWAGDKETGQGGITEEETVDIPEIPGFKDLEPMEQFIAQVDLCVDCTTGCLKGLANVKCSDLLKKWLPSRCATFASKIQAQVDKIKGAGGS
modifications: Synthetic ALuc18
B2: ALuc17: artificial luciferase, SEQ ID NO: 24 (protein)
chain: MMGIKVLFALICFALVQANPTENKDDIDIVGVEGKFGTTDLETDLFTIVEDMNVISRDTDVDANRADRGRRGKMPGKKLPKAVLIELEANAQKAGCHRGCLICLSHIKCTAKMKEWLPGRCESWGGDKETGQAGIVGAIVDIPEIPGFKDLEPMEQFIAQVDLCVDCTTGCLKGLANVKCSDLLKKWLPSRCATFASKIQAQVDKIKGAGGS
modifications: Synthetic ALuc17
B3: ALuc19: artificial luciferase, SEQ ID NO: 25 (protein)
chain: MMGIKVLFALICFALVQANPTENKDDIDIVGVEGKFGTTDLETDLFTIVEDMNVISRDTDVDANRADRGRRGRKLPGKKLPKEVLKILEANAQRAGCHRGCLICLSHIKCTAKMKQWLPGRCESWEGDKETGQGGIGGPIVDIGVLGPEIPGFKDLEPMEQFIAQVDLCVDCTTGCLKGLANVKCSDLLKKWLPSRCATFASKIQAQVDKIKGAGGS
modifications: Synthetic ALuc19
B4: ALuc26: artificial luciferase, SEQ ID NO: 28 (protein)
chain: MMGVKLIFAVLCVAVAQANATINENFEDIDLVAIGGSFADLETDLFTIVEDMNVISRDTDVDANRGGRGRRGKLPGKKLPLEVLKELEANAQKAGCTRGCLICLSHIKCTAKMKKWLPGRCESWEGDKETGQGGIGEAIVDIPEIPGFKNLAPMEQFIAQVDLCADCTTGCLKGLANVKCSNLLKKWLPSRCAGFANKIQAQVDTIKGLGGS
modifications: Synthetic Aluc26
B5: ALuc27: artificial luciferase, SEQ ID NO: 29 (protein)
chain: B4 chain with N150F, K179F, N182F, N197F
modifications: Synthetic ALuc27
B6: ALuc28: artificial luciferase, SEQ ID NO: 30 (protein)
chain: B4 chain with N150Y, K179Y, N182Y, N197Y
modifications: Synthetic ALuc28
B7: ALuc29: artificial luciferase, SEQ ID NO: 31 (protein)
chain: B4 chain with N150W, K179W, N182W, N197W
modifications: Synthetic ALuc29
B8: ALuc15: artificial luciferase, SEQ ID NO: 12 (protein)
chain: MMGIKVLFALICFALVQANPTENKDDIDIVGVEGKFGTTDLETDLFTIVEDMNVISRDTDVDANRADRGKLPGKKLPLEVLKELEANAQKAGCTRGCLICLSHIKCTAKMKKWLPGRCESWEGDKETGQGGIGEAIVDIPEIPGFKDLEPMEQFIAQVDLCVDCTTGCLKGLANVKCSDLLKKWLPSRCATFASKIQAQVDKIKGAGGS
modifications: Synthetic ALuc15
B9: ALuc21: artificial luciferase, SEQ ID NO: 26 (protein)
chain: MMGIKVLFALICFALVQANATINEEDIDLVAIGGSFATTDLETDLFTIVEDMNVISRDTDVDANRADRGRRGKLPGKKLPLEVLKELEANAQKAGCTRGCLICLSHIKCTAKMKKWLPGRCESWEGDKETGQGGIGEAIVDIPEIPGFKDLEPMEQFIAQVDLCVDCTTGCLKGLANVKCSDLLKKWLPSRCATFASKIQAQVDKIKGAGGS
modifications: Synthetic ALuc21
B10: ALuc10: artificial luciferase, SEQ ID NO: 11 (protein)
chain: B8 chain with G3E, K5Q, D60N, V61L, D62A, A63N, N64S, R65D
modifications: Synthetic ALuc10

Numbering of substitutions follows the chain as printed.

For one test, the system named is COS-7 cells. The test is described as follows: Enzymatic activity confirmation of ALuc (section 3-1, 3-2). To be noted: vs conventional copepod luciferases. The format is cell-based, African monkey. The method, then: First, using a known lipid reagent for gene introduction, an expression vector encoding ALuc is introduced into African monkey-derived COS-7 cells; as a control, an expression vector having a known GLuc without any mutation into the cells is also introduced in the same manner. At a predetermined time (from 10 to 20 hours, for example, 16 hours) after the introduction of the vector, a cell lysate is prepared using a known lysis reagent.
Thereafter, the cell lysate is mixed with a known substrate solution containing coelenterazine, and its color intensity, temporal stability in luminescence, etc., are measured.
The luminescence intensity may be found by measuring the intensity at a specific wavelength using a known luminescence spectrophotometer after addition of a known substrate. By performing the measurement every minute, the temporal stability in luminescence can be evaluated. To measure a shift to a longer wavelength, scanning of the entire wavelength is necessary.
On to B1, for which the “luminescence stability (general statement)” value (“luminescence stability” below) is listed as “remarkably stable luminescence signals”. For B2, the “luminescence stability” value is “remarkably stable luminescence signals”.

In the case of B3, the “luminescence stability” value was “remarkably stable luminescence signals”. Consider B4, for which the “luminescence stability” value is recorded as “remarkably stable luminescence signals”. The same measure, in the same setting: to B5 belongs “remarkably stable luminescence signals”; to B6, “remarkably stable luminescence signals”; to B7, “remarkably stable luminescence signals”.

Take B8: the “luminescence stability” value was “remarkably stable luminescence signals”. On the same count and under the same terms, under B9 stands “remarkably stable luminescence signals”.

The test system of a further test is COS-7 cells. The test is described as follows: Comparison of luminescence intensity of ALucs (Example 1-2). The conditions noted are these: COS-7 cultured overnight, Promega assay solution, LAS-4000. The format is cell-based, African green monkey. The source says:
The artificial luciferase (ALuc) genes synthesized by the above process were subcloned into mammalian cell expression vectors (pcDNA3.1 (+)). Each expression vector was transfected with African green monkey kidney-derived COS-7 cells, and the luminescence intensity, luminescence stability, and red-shifted degree of artificial luciferases (ALucs) were compared (FIGS. 2 to 5).
First, the luminescence intensity of artificial luciferases (ALucs) was compared (FIG. 2). For the comparison, COS-7 cells containing a vector encoding each luciferase were cultured overnight, and then the relative luminescence intensity was measured by using an assay solution, which is a mixture of a cell lysis solution and a substrate, produced by Promega, and a luminescence image analyzer (LAS-4000).
Consider B1, for which the “luminescence intensity higher than that of conventional GLuc, Renilla luciferase and MpLuc4” value is “about 50 folds”. Turning to B8, the “luminescence intensity higher than that of conventional GLuc, Renilla luciferase and MpLuc4” value was “about 50 folds”. On the same count and under the same terms, under B10 stands “about 50 folds”.

For another test, the system named is artificial luciferase (ALuc). In words: Effects of heavy metal ions as additive for assay buffer (Example 2-3). To be noted: 1 ppm in HBSS buffer after C3 lysis. The format is cell-based. The method, then: This example examined the effects of a heavy metal ion as an additive for an assay buffer (FIG. 25). […] After 16-hour incubation in a CO2 incubator, 50 μL of a C3 solution was added to each well to allow for cell lysis for 20 minutes. 1 ppm of each type of heavy metal ion shown in FIG. 25 and 50 μL of a substrate-containing HBSS buffer were added to the lysate simultaneously, and the relative luminescence intensities were immediately measured with an LAS-4000. After the substrate-containing assay buffer was further added, the luminescence at the 8- and 16-minute point was measured to examine the luminescence stability.
`[Ni+2]` [Ni(II)]: the “effect of heavy metal additive on luminescence intensity” value (“effect of heavy metal additive” below) is given as “significantly decrease the luminescence intensity”. `[Al+3]` [Al(III)]: the “comprehensive evaluation of luminescence intensity and stability” value (shortened to “comprehensive evaluation”) is “excellent additives”; the “effect of heavy metal additive” value was “suitable to be added to C3 and HBSS”. In the case of `[Cu+2]` [Cu(II)], the “comprehensive evaluation” value is on record as “excellent additives”; the “effect of heavy metal additive” value is “suitable to be added to C3 and HBSS”.

With `[Co+2]` [Co(II)], the “effect of heavy metal additive” value was “significantly decrease the luminescence intensity”. On to `[Mg+2]` [Mg(II)], for which the “effect of heavy metal additive” value is “suitable to be added to C3 and HBSS”. On to `[Zn+2]` [Zn(II)], for which the “comprehensive evaluation” value is recorded as “excellent additives”.

As for `[Cd+2]` [Cd(II)], the “effect of heavy metal additive” value was “significantly decrease the luminescence intensity”. For `[Fe+3]` [Fe(III)], the “comprehensive evaluation” value is “excellent additives”; the “effect of heavy metal additive” value is “suitable to be added to C3 and HBSS”.

For the molecule `[Ca+2]` [Ca(II)], the “effect of heavy metal additive” value is “suitable to be added to C3 and HBSS”. Regarding `[Mo]` [Mo(VI)], the “comprehensive evaluation” value was “excellent additives”.
